According to US20040171563A1, “Novel use of tyrosine kinase inhibitor” (priority 2001, published 2004):

Columns and labels:
[1] = target: T1, GTK (Mus musculus, UniProt Q922K9); test: in vitro kinase assay for GTK activity; type: biochemical; conditions: for Ki: inhibition of GTK activity in in vitro kinase assays; for inhibition of GTK (qualitative): screening of commercially available tyrosine kinase inhibitors
T1 construct: made in house
Description: (§1) Ki using AG957 was approximately 1 μM and that of SU4984 was about 10 μM. These inhibitors were added to Islets of Langerhans in in vitro cultures together with the cytokines IL-1β+IFN-γ, and apoptosis was determined by propidium iodide staining after 24 h. It was shown that AG957 and SU 4984 prevented cytokine-induced apoptosis by 60 and 75%, respectively, which further lends support to the view that GTK-inhibition prevents beta-cell destruction in type 1 diabetes. […] It is expected that also human FRK will be inhibited.
Assay for the assessment of GTK (FRK) kinase activity: The basis for screening for specific GTK kinase inhibitors is in vitro kinase assays, utilizing baculovirus produced GTK which is purified by immunoprecipitation using the GTK antibody. Both these reagents are available for the skilled person within this field. Phosphorylation of a synthetic peptide substrate will be studied (Annerén and Welsh, 2000) testing different concentrations of inhibitors, and IC50 values can then be determined for inhibition of GTK kinase activity. The specificity of drug-induced GTK-inhibition is then assessed by comparing the IC50 values with those of other tyrosine kinases.

[2] = tested on: Islets of Langerhans; test: cytokine-induced apoptosis in Islets of Langerhans, propidium iodide staining; type: cell-based; conditions: in vitro islet cultures with IL-1β+IFN-γ, propidium iodide staining after 24 h
Description: as §1

T1 sequence (Q922K9 whole entry): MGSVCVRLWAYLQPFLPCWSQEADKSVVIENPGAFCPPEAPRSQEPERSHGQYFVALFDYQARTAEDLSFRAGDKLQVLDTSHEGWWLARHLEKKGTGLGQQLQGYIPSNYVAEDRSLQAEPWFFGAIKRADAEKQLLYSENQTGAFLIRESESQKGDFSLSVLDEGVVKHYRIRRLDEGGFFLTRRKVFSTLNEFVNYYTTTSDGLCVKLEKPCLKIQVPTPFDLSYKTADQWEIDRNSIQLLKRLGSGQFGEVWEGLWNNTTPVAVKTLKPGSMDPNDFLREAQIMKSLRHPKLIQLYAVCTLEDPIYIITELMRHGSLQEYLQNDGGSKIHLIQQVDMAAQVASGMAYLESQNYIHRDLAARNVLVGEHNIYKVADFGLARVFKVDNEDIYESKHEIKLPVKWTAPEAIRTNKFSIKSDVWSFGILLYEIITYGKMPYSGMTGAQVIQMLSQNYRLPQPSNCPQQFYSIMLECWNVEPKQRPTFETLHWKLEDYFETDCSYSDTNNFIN

| Ki [1] | Structure (SMILES) | inhibition of GTK (qualitative) [1] | prevention of cytokine-induced apoptosis [2] |
| --- | --- | --- | --- |
| ~1 µM | COC(=O)c1ccc(NCc2cc(O)ccc2O)cc1 [AG957] | inhibited GTK activity in in vitro kinase assays with a reasonably high degree of specificity | 60% |
| – | N#C/C(=C\c1ccc(O)c(O)c1)C(=O)O [AG 30] | inhibit GTK with a fair degree of specificity | – |
| ~10 µM | O=CN1CCN(c2ccc(/C=C3\C(=O)Nc4ccccc43)cc2)CC1 [SU4984] | inhibited GTK activity in in vitro kinase assays with a reasonably high degree of specificity | 75% |
